Data on 2 compounds can be found in publication PMC5071372, “Combining biophysical methods to analyze the disulfide bond in SH2 domain of C-terminal Src kinase” (Biophysics Reports, 2016).

Square brackets hold non-standard residues; d marks the D form. Peptide text beside a SMILES is read from it. pY = N[C@@H](Cc1ccc(OP(=O)(O)O)cc1)C(=O)O

Test [1] concerns the target T1, reduced Csk L-SH2 (Homo sapiens, UniProt P41240).
T1 construct: made in house
T1 sequence (P41240 73-178): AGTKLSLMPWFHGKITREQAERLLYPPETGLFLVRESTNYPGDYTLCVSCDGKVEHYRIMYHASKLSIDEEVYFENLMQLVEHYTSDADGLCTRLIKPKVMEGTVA
In words: Fluorescence titration of reduced Csk L-SH2 with Cbp peptide. It counts as binding. The following applies: 10-residue Cbp peptide, Csk SH2, redox form not given. As for the experimental part: Fluorescence titrations were performed at 25 °C in 3 mL of 50 mmol/L Tris-HCl (pH 7.5) using excitation and emission wavelengths of 288 nm and 320 nm, respectively. The 10-residue synthetic phosphopeptide corresponding to the specific SH2-binding site in Cbp was titrated with the L-SH2 sample. The typically adopted protein concentration is 5 μmol/L. For the denaturation experiments, ultrapure guanidine hydrochloride (Sigma S0933) was used. Proteins were exposed to guanidine hydrochloride concentrations ranging from 0 to 6 mol/L at 0.1–0.2 mol/L steps. The concentrations of guanidine hydrochloride of the solutions were determined by measuring the index of refraction and by using the following equation: d/d 0 = 1 + 0.2710 W + 0.0330 W ^2 (Tanford et al. [1966]), where W is the weight fraction of guanidine hydrochloride in the solution, d is the density of the solution, and d 0 is the density of water. Reversibility of the guanidine hydrochloride-induced unfolding reaction and the time necessary to re-establish equilibrium were determined by diluting a concentrated protein solution containing 6 mol/L guanidine hydrochloride into the buffer and by monitoring the fluorescence spectrum of the protein as a function of time. […] F unf values were calculated from the linear extrapolation of the pre- and post-unfolding baselines. […]

In test [2] the test system is Csk L-SH2 disulfide bond. As to the kind of experiment: NMR-monitored reduction of oxidized SH2 by DTT. The following applies: 10 mmol/L DTT, pH 7.5, NMR. It counts as physicochemical, human. The source says:
During purification of the Csk L-SH2 domain, 50 mmol/L DTT was used to elute the protein from the chitin resin. The L-SH2 was used in reduced form, given that DTT was used to cleave L-SH2 from its intein fusion partner. Following elution of the protein from the ion exchange column, the L-SH2 became a mixture of the reduced and oxidized forms. The fully oxidized form was obtained by exposing the protein to air for several days.
Fig. 3 Comparison of the oxidized and reduced form of SH2. A Comparison of ^1H–^15N HSQC of oxidized (red) and reduced (green) SH2. B Combined chemical shift change of oxidized and reduced form SH2. The difference was calculated as ∆δ tot = [(∆δ H)^2 + (0.154∆δ N)^2]^1/2. […]
All NMR experiments were performed at 298 K on 800 MHz spectrometers equipped with triple-resonance cryoprobes. […] The combined change in chemical shift of a particular residue upon ligation with the kinase domain was calculated as ∆δ = [(∆δ H)^2 + (0.154∆δ N)^2]^1/2, where ∆δ H and ∆δ N correspond to the changes in amide proton and nitrogen chemical shift, respectively. The weight factor for ^1H and ^15N is determined from the ratio of the average variances of the amide nitrogen and proton chemical shifts observed for the 20 common amino acid residues in proteins deposited in the BioMagResBank (Mulder et al. [1999]). […]

The subject of test [3] is full-length Csk. To be noted: ref Kemble and Sun [2009]; cited from earlier work. An excerpt:
Disulfide bonds are mostly found in secretory proteins and in extracellular domains of membrane proteins. Cytosolic proteins, which contain cysteine residues that are in close proximity to each other, may function as oxidation sensors; when the reductive potential of the cell fails, they oxidize and trigger cellular response mechanisms (Sevier and Kaiser [2002]). Mills et al. studied the unique disulfide bond of Csk SH2 that is absent in other known SH2 domains.

As for `CC[C@H](C)[C@H](N)C(=O)N[C@@H](CO)C(=O)N[C@@H](C)C(=O)N[C@@H](CCSC)C(=O)N[C@@H](Cc1ccc(OP(=O)(O)O)cc1)C(=O)N[C@@H](CO)C(=O)N[C@@H](CO)C(=O)N[C@H](C(=O)N[C@@H](CC(N)=O)C(=O)N[C@@H](CCCCN)C(=O)O)C(C)C` [Cbp peptide] (H-ISAM[pY]SSVNK-OH), the “affinity of Cbp peptide for Csk SH2 (in words)” value in test [1] is “affinity at the µmol/L level”.
In the case of `O[C@@H](CS)[C@@H](O)CS` [DTT, reference compound], the “time sufficient to reduce the SH2 domain” value in test [2] is ≤ 10 h. In test [3], the “activation of Csk” value was “mildly activated”.
